Data: US20240390464A1, “Treatment of Adults With Overweight or Obesity With or Without Weight-Related Comorbidities” (Carmot Therapeutics Inc., priority 2023, published 2024)
Numbered stars: 1 amine (or outer) side, 2 acyl side, 3 side chain; on linkers, the order of the positions; unused ones are H or OH. Square brackets hold non-standard residues; d marks the D form. Side chains are listed from the residue outwards. Peptide text beside a SMILES is read from it. * marks the point of attachment. Isobutyryl(2-(3-CN-5-F-Ph)) = CC(C)(C(=O)*)c1cc(F)cc(C#N)c1; C20 diacid = O=C(O)CCCCCCCCCCCCCCCCCCC(=O)*; γGlu = O=C(O)[C@H](CCC(=O)[*:2])N[*:1]; AEEA = NCCOCCOCC(=O)O; Aib = CC(C)(N)C(=O)O; βAla = NCCC(=O)O

Assay: Phase 1 SAD Cohorts 1-5: safety and tolerability (adverse events)
Assay type: in vivo, human
Conditions: for AE: Abdominal bloating / AE: Abdominal cramp / AE: Abdominal cramp with loose bowel / AE: Abdominal pain / AE: Abnormal LFTs / AE: Constipation / AE: Diarrhea / AE: Dyspepsia / AE: Dysphasia / AE: Early satiety / AE: Emesis / AE: Exacerbated GERD / AE: Fatigue / AE: Headache / AE: Indigestion / AE: Lethargy / AE: Loose bowel motion / AE: Loose stools / AE: Loss of Appetite / AE: Microscopic hematuria / AE: Nausea / AE: Reduced appetite / AE: Reduced bowel motion / AE: Reflux / AE: Throat discomfort / AE: Vomiting / Life-threatening TEAE / Moderate TEAEs / Related TEAEs / Serious TEAEs / Severe TEAEs / TEAE leading to death / TEAEs: N = 8, blinded
Excerpt: This Example outlines the protocol for a Phase 1 randomized, double-blind, placebo-controlled study to evaluate the safety, tolerability, pharmacokinetics, and pharmacodynamics of CT-388 in otherwise healthy overweight and obese adult participants and in obese patients with type 2 diabetes mellitus.
The primary objective of this study is to determine the safety and tolerability of CT-388 in otherwise healthy overweight and obese adult participants when administered as a single dose of 0.5, 2.0, 5.0, 6.0, or 7.5 mg.
Safety and tolerability will be assessed by monitoring adverse events (AE) including local injection-site reactions, measuring vital signs and ECGs, and performing clinical laboratory blood and urine analyses.
• Cohort 1: One dose containing 0.5 mg of CT-388 or matched placebo administered subcutaneously in the abdomen • Cohort 2: One dose containing 2.0 mg of CT-388 or matched placebo administered subcutaneously in the abdomen • Cohort 3: One dose containing 5.0 mg of CT-388 or matched placebo administered subcutaneously in the abdomen • Cohort 4: One dose containing 7.5 mg of CT-388 or matched placebo administered subcutaneously in the abdomen • Cohort 5: One dose containing 6.0 mg of CT-388 or matched placebo administered subcutaneously in the abdomen
A Phase 1, randomized, placebo-controlled, double-blind study was conducted where single ascending doses (SAD; n=40; 0.5-7.5 mg) and multiple ascending doses (MAD; n=24; 5-12 mg via titration in 3 cohorts) were administered as described in Example 1 to overweight/obese adults.

[1] = Cohort 1, 0.5 mg/Placebo single SC dose
[2] = Cohort 2, 2 mg/Placebo single SC dose
[3] = Cohort 3, 5 mg/Placebo single SC dose
[4] = Cohort 4, 7.5 mg/Placebo single SC dose
[5] = Cohort 5, 6 mg/Placebo single SC dose

With CC[C@H](C)[C@H](NC(=O)[C@H](CC(C)C)NC(=O)[C@H](Cc1c[nH]c2ccccc12)NC(=O)[C@H](CCC(N)=O)NC(=O)[C@@H](NC(=O)[C@H](Cc1ccccc1)NC(=O)[C@H](C)NC(=O)[C@H](CCCCNC(=O)COCCOCCNC(=O)COCCOCCNC(=O)CC[C@H](NC(=O)CCCCCCCCCCCCCCCCCCC(=O)O)C(=O)O)NC(=O)[C@H](CCC(N)=O)NC(=O)[C@H](C)NC(=O)[C@@H](NC(=O)[C@H](CCCCN)NC(=O)[C@H](CC(=O)O)NC(=O)[C@H](CC(C)C)NC(=O)C(C)(C)NC(=O)[C@@H](NC(=O)[C@H](CO)NC(=O)[C@H](Cc1ccc(O)cc1)NC(=O)[C@H](CC(=O)O)NC(=O)[C@H](CO)NC(=O)[C@@H](NC(=O)[C@H](Cc1ccccc1)NC(=O)[C@@H](NC(=O)CNC(=O)[C@H](CCC(=O)O)NC(=O)CCNC(=O)C(C)(C)c1cc(F)cc(C#N)c1)[C@@H](C)O)[C@@H](C)O)[C@@H](C)CC)[C@@H](C)CC)C(C)C)C(=O)N[C@@H](C)C(=O)NCC(=O)NCC(=O)N1CCC[C@H]1C(=O)N[C@@H](CO)C(=O)N[C@@H](CO)C(=O)NCC(=O)N[C@@H](C)C(=O)N1CCC[C@H]1C(=O)N1CCC[C@H]1C(=O)N1CCC[C@H]1C(=O)N[C@@H](CO)C(N)=O [CT-388] ({Isobutyryl(2-(3-CN-5-F-Ph))-βAla}-EGTFTSDYSI[Aib]LDKIAQK([AEEA-AEEA-γGlu-C20 diacid])AFVQWLIAGGPSSGAPPPS-NH2) the “AE: Abdominal bloating” value [1] was 0, the “AE: Abdominal cramp” value [1] was 0 and the “AE: Abdominal cramp with loose bowel” value [1] was 0. For the same compound, the “AE: Abdominal pain” value [1] was 0, the “AE: Abnormal LFTs” value [1] was 0 and the “AE: Constipation” value [1] was 0. The “AE: Diarrhea” value [1] was 0, the “AE: Dyspepsia” value [1] was 0 and the “AE: Dysphasia” value [1] was 0. The “AE: Early satiety” value [1] was 0, the “AE: Emesis” value [1] was 0 and the “AE: Exacerbated GERD” value [1] was 0. For the same compound, the “AE: Fatigue” value [1] was 0, the “AE: Headache” value [1] was 0 and the “AE: Indigestion” value [1] was 0. The “AE: Lethargy” value [1] was 0, the “AE: Loose bowel motion” value [1] was 0 and the “AE: Loose stools” value [1] was 0. The “AE: Loss of Appetite” value [1] was 0, the “AE: Microscopic hematuria” value [1] was 0 and the “AE: Nausea” value [1] was 0. For the same compound, the “AE: Reduced appetite” value [1] was 0, the “AE: Reduced bowel motion” value [1] was 0 and the “AE: Reflux” value [1] was 0. The “AE: Throat discomfort” value [1] was 0, the “AE: Vomiting” value [1] was 0 and the “Life-threatening TEAE” value [1] was 0. For the same compound, the “Moderate TEAEs” value [1] was 0, the “Related TEAEs” value [1] was 0 and the “Serious TEAEs” value [1] was 0. The “Severe TEAEs” value [1] was 0, the “TEAE leading to death” value [1] was 0 and the TEAEs [1] was 8. The “AE: Abdominal bloating” value [2] was 0, the “AE: Abdominal cramp” value [2] was 0 and the “AE: Abdominal cramp with loose bowel” value [2] was 2 (25.0%). For the same compound, the “AE: Abdominal pain” value [2] was 0, the “AE: Abnormal LFTs” value [2] was 0 and the “AE: Constipation” value [2] was 2 (25.0%). The “AE: Diarrhea” value [2] was 0, the “AE: Dyspepsia” value [2] was 0 and the “AE: Dysphasia” value [2] was 0. For the same compound, the “AE: Early satiety” value [2] was 1 (12.5%), the “AE: Emesis” value [2] was 0 and the “AE: Exacerbated GERD” value [2] was 0. The “AE: Fatigue” value [2] was 2 (25.0%), the “AE: Headache” value [2] was 1 (12.5%) and the “AE: Indigestion” value [2] was 0. For the same compound, the “AE: Lethargy” value [2] was 1 (12.5%), the “AE: Loose bowel motion” value [2] was 0 and the “AE: Loose stools” value [2] was 0. For the same compound, the “AE: Loss of Appetite” value [2] was 2 (25.0%), the “AE: Microscopic hematuria” value [2] was 0 and the “AE: Nausea” value [2] was 0. The “AE: Reduced appetite” value [2] was 0, the “AE: Reduced bowel motion” value [2] was 0 and the “AE: Reflux” value [2] was 0. For the same compound, the “AE: Throat discomfort” value [2] was 0, the “AE: Vomiting” value [2] was 0 and the “Life-threatening TEAE” value [2] was 0. For the same compound, the “Moderate TEAEs” value [2] was 1, the “Related TEAEs” value [2] was 6 and the “Serious TEAEs” value [2] was 0. For the same compound, the “Severe TEAEs” value [2] was 0, the “TEAE leading to death” value [2] was 0 and the TEAEs [2] was 8. For the same compound, the “AE: Abdominal bloating” value [3] was 0, the “AE: Abdominal cramp” value [3] was 0 and the “AE: Abdominal cramp with loose bowel” value [3] was 0. The “AE: Abdominal pain” value [3] was 0, the “AE: Abnormal LFTs” value [3] was 0 and the “AE: Constipation” value [3] was 0. The “AE: Diarrhea” value [3] was 0, the “AE: Dyspepsia” value [3] was 1 (12.5%) and the “AE: Dysphasia” value [3] was 1 (12.5%). For the same compound, the “AE: Early satiety” value [3] was 0, the “AE: Emesis” value [3] was 2 (25.0%) and the “AE: Exacerbated GERD” value [3] was 0. The “AE: Fatigue” value [3] was 0, the “AE: Headache” value [3] was 0 and the “AE: Indigestion” value [3] was 1 (12.5%). For the same compound, the “AE: Lethargy” value [3] was 0, the “AE: Loose bowel motion” value [3] was 0 and the “AE: Loose stools” value [3] was 0. For the same compound, the “AE: Loss of Appetite” value [3] was 1 (12.5%), the “AE: Microscopic hematuria” value [3] was 1 (12.5%) and the “AE: Nausea” value [3] was 0. For the same compound, the “AE: Reduced appetite” value [3] was 0, the “AE: Reduced bowel motion” value [3] was 0 and the “AE: Reflux” value [3] was 0. The “AE: Throat discomfort” value [3] was 0, the “AE: Vomiting” value [3] was 0 and the “Life-threatening TEAE” value [3] was 0. The “Moderate TEAEs” value [3] was 0, the “Related TEAEs” value [3] was 4 and the “Serious TEAEs” value [3] was 0. For the same compound, the “Severe TEAEs” value [3] was 0, the “TEAE leading to death” value [3] was 0 and the TEAEs [3] was 6. For the same compound, the “AE: Abdominal bloating” value [4] was 1 (12.5%), the “AE: Abdominal cramp” value [4] was 1 (12.5%) and the “AE: Abdominal cramp with loose bowel” value [4] was 0. The “AE: Abdominal pain” value [4] was 0, the “AE: Abnormal LFTs” value [4] was 1 (12.5%) and the “AE: Constipation” value [4] was 0. For the same compound, the “AE: Diarrhea” value [4] was 2 (25.0%), the “AE: Dyspepsia” value [4] was 0 and the “AE: Dysphasia” value [4] was 0. The “AE: Early satiety” value [4] was 0, the “AE: Emesis” value [4] was 0 and the “AE: Exacerbated GERD” value [4] was 1 (12.5%). For the same compound, the “AE: Fatigue” value [4] was 0, the “AE: Headache” value [4] was 2 (25.0%) and the “AE: Indigestion” value [4] was 0. For the same compound, the “AE: Lethargy” value [4] was 0, the “AE: Loose bowel motion” value [4] was 0 and the “AE: Loose stools” value [4] was 1 (12.5%). For the same compound, the “AE: Loss of Appetite” value [4] was 1 (12.5%), the “AE: Microscopic hematuria” value [4] was 0 and the “AE: Nausea” value [4] was 6 (75.0%). For the same compound, the “AE: Reduced appetite” value [4] was 2 (25.0%), the “AE: Reduced bowel motion” value [4] was 1 (12.5%) and the “AE: Reflux” value [4] was 2 (25.0%). The “AE: Throat discomfort” value [4] was 1 (12.5%), the “AE: Vomiting” value [4] was 3 (37.5%) and the “Life-threatening TEAE” value [4] was 0. For the same compound, the “Moderate TEAEs” value [4] was 5, the “Related TEAEs” value [4] was 7 and the “Serious TEAEs” value [4] was 1. For the same compound, the “Severe TEAEs” value [4] was 1, the “TEAE leading to death” value [4] was 0 and the TEAEs [4] was 8. For the same compound, the “AE: Abdominal bloating” value [5] was 0, the “AE: Abdominal cramp” value [5] was 0 and the “AE: Abdominal cramp with loose bowel” value [5] was 0. For the same compound, the “AE: Abdominal pain” value [5] was 1 (12.5%), the “AE: Abnormal LFTs” value [5] was 0 and the “AE: Constipation” value [5] was 1 (12.5%). The “AE: Diarrhea” value [5] was 0, the “AE: Dyspepsia” value [5] was 0 and the “AE: Dysphasia” value [5] was 0. For the same compound, the “AE: Early satiety” value [5] was 0, the “AE: Emesis” value [5] was 0 and the “AE: Exacerbated GERD” value [5] was 0. The “AE: Fatigue” value [5] was 0, the “AE: Headache” value [5] was 1 (12.5%) and the “AE: Indigestion” value [5] was 0. The “AE: Lethargy” value [5] was 0, the “AE: Loose bowel motion” value [5] was 1 (12.5%) and the “AE: Loose stools” value [5] was 0. The “AE: Loss of Appetite” value [5] was 1 (12.5%), the “AE: Microscopic hematuria” value [5] was 0 and the “AE: Nausea” value [5] was 2 (25.0%). For the same compound, the “AE: Reduced appetite” value [5] was 1 (12.5%), the “AE: Reduced bowel motion” value [5] was 0 and the “AE: Reflux” value [5] was 0. For the same compound, the “AE: Throat discomfort” value [5] was 0, the “AE: Vomiting” value [5] was 2 (25.0%) and the “Life-threatening TEAE” value [5] was 0. For the same compound, the “Moderate TEAEs” value [5] was 2, the “Related TEAEs” value [5] was 4 and the “Serious TEAEs” value [5] was 1. The “Severe TEAEs” value [5] was 1, the “TEAE leading to death” value [5] was 0 and the TEAEs [5] was 6. For the same compound, the safety and tolerability (SAD Cohorts 1-5, single SC dose 0.5-7.5 mg, preliminary and blinded data) was “generally well-tolerated”.
